Assay results: paper PMC2045673, “Site-specific acetylation of ISWI by GCN5” (BMC Molecular Biology, 2007)

What was measured:
Assay in all cases: radiometric HAT assay, SDS-PAGE autoradiography
Type in all cases: biochemical
MOF (HA-MOF) = biological target: T1, MOF (HA-MOF) (Drosophila melanogaster, UniProt O02193); conditions: labelled compound; co-substrate histones; pH 7.8, 26 °C
T1 construct: HA-tagged recombinant MOF
T1 sequence (O02193 1-827): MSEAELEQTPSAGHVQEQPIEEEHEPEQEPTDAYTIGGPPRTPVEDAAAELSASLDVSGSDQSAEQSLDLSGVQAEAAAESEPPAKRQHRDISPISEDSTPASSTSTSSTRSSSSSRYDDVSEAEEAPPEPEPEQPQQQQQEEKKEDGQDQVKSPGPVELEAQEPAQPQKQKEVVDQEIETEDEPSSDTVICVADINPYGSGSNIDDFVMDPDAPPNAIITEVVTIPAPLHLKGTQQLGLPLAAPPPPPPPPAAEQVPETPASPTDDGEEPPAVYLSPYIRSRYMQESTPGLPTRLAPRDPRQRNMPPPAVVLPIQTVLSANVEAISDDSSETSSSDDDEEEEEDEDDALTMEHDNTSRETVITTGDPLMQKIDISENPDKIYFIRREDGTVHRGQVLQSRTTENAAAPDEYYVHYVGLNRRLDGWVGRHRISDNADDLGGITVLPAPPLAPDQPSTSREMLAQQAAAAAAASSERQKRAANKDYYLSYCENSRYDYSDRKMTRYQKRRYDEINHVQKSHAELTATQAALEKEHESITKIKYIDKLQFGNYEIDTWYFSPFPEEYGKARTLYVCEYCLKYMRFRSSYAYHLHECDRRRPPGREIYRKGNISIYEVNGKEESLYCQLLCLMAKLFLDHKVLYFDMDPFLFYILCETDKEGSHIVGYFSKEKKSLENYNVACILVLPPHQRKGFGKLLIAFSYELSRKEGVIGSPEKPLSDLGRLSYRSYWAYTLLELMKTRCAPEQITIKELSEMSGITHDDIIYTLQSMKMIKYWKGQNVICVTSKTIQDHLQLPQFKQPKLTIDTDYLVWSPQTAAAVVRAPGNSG

GCN5 (GST-hGCN5) = biological target: T2, GCN5 (GST-hGCN5) (Homo sapiens, UniProt Q92830); conditions: labelled compound; co-substrate histones, ISWI or peptide; pH 7.8, 26 °C
T2 construct: gene KAT2A; GST-tagged, recombinant from E. coli
T2 sequence (Q92830 whole entry): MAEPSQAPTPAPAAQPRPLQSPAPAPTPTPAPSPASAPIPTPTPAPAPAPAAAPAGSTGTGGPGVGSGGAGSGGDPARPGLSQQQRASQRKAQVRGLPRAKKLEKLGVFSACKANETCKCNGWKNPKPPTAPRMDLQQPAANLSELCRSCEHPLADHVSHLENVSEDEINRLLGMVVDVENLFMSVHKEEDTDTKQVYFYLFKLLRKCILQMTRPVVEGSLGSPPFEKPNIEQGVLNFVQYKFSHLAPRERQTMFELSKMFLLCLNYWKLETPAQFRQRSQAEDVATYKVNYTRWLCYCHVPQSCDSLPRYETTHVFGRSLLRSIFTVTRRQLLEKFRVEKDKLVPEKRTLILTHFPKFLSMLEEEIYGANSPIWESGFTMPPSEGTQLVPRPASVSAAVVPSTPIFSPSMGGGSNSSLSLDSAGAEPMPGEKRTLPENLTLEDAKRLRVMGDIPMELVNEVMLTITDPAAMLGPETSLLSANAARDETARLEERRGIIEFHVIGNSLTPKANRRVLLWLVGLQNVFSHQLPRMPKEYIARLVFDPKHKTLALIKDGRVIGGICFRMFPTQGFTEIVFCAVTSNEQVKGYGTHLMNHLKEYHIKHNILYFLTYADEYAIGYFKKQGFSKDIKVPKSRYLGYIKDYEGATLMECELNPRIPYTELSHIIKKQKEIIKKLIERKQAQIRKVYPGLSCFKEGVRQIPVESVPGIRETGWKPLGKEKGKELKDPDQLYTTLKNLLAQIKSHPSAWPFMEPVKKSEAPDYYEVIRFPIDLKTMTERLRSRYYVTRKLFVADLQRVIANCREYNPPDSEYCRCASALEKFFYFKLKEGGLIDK

p300 (FLAG-p300) = biological target: T3, p300 (FLAG-p300) (Homo sapiens, UniProt Q09472); conditions: labelled compound; co-substrate histones, ISWI or peptide; pH 7.8, 26 °C
T3 construct: gene EP300; FLAG-tagged recombinant p300
T3 sequence (Q09472 2-2414): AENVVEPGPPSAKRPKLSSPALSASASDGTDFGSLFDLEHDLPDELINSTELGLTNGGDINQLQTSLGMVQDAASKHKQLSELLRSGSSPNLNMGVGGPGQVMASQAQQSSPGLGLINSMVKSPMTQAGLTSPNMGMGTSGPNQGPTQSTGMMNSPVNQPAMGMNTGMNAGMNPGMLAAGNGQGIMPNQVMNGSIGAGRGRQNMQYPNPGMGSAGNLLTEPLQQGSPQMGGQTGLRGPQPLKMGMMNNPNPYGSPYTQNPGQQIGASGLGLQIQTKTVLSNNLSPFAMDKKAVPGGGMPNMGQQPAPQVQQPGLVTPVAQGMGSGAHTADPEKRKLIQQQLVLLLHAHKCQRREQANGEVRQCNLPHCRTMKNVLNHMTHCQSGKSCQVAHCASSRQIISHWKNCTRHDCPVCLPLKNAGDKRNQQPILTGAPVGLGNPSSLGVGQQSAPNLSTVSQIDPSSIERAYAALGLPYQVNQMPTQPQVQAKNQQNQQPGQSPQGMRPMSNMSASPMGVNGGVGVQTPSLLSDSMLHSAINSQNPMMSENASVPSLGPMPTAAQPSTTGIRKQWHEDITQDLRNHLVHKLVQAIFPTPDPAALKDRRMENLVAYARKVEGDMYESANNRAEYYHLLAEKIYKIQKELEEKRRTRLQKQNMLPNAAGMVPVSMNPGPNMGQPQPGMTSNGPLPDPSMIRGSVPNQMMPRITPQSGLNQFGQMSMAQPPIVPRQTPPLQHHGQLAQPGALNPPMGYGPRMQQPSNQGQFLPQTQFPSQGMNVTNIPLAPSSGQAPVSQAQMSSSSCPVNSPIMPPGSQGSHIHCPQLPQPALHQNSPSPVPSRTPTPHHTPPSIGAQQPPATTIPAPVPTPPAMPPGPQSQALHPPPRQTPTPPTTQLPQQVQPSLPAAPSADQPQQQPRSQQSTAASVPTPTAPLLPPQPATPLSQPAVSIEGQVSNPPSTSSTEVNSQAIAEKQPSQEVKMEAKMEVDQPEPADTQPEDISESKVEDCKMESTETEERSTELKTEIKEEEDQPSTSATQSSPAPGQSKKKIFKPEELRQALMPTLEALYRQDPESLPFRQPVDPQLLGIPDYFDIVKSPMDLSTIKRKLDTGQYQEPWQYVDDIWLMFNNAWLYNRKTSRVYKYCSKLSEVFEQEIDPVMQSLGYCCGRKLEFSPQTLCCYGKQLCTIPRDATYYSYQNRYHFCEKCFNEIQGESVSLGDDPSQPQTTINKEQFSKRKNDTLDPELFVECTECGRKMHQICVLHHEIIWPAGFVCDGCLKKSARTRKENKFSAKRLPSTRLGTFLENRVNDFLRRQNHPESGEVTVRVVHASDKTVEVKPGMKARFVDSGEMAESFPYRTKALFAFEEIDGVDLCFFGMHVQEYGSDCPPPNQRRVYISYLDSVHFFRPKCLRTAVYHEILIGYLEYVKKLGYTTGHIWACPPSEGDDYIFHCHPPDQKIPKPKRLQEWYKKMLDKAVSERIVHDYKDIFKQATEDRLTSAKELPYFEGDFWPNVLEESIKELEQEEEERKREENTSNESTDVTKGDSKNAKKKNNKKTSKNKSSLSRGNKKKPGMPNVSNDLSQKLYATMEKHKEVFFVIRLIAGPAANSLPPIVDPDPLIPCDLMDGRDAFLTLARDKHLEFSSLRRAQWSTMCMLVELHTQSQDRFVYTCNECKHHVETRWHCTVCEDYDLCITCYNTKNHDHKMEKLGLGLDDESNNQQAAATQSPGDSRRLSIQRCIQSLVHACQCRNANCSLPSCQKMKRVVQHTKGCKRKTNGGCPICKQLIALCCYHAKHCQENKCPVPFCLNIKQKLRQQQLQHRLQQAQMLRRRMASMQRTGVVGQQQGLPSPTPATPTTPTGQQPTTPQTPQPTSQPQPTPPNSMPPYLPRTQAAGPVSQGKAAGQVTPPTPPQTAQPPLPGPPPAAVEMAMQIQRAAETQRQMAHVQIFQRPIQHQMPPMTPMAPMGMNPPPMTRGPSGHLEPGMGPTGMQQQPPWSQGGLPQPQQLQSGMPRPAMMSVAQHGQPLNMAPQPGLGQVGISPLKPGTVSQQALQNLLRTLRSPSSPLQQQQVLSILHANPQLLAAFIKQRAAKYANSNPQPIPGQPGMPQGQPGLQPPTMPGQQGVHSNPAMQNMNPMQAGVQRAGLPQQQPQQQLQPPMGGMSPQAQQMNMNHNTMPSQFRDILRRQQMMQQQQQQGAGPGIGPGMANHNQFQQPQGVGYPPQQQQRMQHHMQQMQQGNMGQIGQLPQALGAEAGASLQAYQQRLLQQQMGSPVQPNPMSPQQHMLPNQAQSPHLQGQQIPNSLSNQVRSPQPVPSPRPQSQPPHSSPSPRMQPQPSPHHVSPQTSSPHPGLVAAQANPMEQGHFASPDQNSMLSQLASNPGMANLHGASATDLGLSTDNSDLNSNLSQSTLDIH

With `CC(=O)SCCNC(=O)CCNC(=O)[C@H](O)C(C)(C)COP(=O)(O)OP(=O)(O)OC[C@H]1O[C@@H](n2cnc3c(N)ncnc32)[C@H](O)[C@@H]1OP(=O)(O)O` [acetyl-CoA] the “radiometric HAT assay, SDS-PAGE autoradiography” value (“radiometric HAT assay” for short) (MOF (HA-MOF)) was “The histone acetyltransferase activities of recombinant GCN5, p300 and MOF were assayed”, the “radiometric HAT assay” value (GCN5 (GST-hGCN5)) was “The histone acetyltransferase activities of recombinant GCN5, p300 and MOF were assayed” and the “radiometric HAT assay” value (p300 (FLAG-p300)) was “The histone acetyltransferase activities of recombinant GCN5, p300 and MOF were assayed”.
